According to ChEMBL document CHEMBL1212897 (J Med Chem, 2010):
Calls of active or inactive are those of the source. The calls are words filed in the database; no cut-off is given here.

Assays:
Androgen receptor = molecular target: T1, Androgen receptor (Homo sapiens, UniProt P10275)
T1 sequence (P10275 whole entry): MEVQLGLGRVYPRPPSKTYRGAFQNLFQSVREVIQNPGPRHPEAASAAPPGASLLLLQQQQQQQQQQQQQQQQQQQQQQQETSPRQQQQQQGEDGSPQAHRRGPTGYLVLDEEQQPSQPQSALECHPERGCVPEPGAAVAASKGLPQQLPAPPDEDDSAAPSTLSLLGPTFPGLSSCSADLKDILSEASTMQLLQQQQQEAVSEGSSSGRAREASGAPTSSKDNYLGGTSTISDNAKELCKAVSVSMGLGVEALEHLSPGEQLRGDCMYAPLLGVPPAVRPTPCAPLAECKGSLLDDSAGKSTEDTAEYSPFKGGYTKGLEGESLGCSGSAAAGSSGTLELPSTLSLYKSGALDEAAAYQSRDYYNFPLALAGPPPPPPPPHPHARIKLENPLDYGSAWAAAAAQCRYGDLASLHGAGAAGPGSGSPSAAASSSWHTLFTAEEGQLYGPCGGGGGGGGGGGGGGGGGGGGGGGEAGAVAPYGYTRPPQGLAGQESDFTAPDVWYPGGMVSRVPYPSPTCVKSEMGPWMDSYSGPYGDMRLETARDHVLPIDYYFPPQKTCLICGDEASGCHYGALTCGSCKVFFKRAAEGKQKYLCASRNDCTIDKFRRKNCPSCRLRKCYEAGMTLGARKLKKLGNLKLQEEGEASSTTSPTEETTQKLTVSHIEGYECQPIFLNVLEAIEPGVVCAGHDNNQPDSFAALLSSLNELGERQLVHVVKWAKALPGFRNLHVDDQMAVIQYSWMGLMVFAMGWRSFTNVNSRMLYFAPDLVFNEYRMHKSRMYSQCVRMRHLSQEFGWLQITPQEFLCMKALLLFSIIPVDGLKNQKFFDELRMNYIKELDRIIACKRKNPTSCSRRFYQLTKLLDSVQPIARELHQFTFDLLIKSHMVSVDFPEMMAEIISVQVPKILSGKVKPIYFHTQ

[1] = Oral bioavailability in Sprague-Dawley rat at 2 mg/kg; assay type: ADME, organism-based; conditions: in vivo
[2] = Half life in Sprague-Dawley rat at 2 mg/kg, iv; assay type: ADME, organism-based; design: dose 2 mg/kg, route intravenous; conditions: in vivo
[3] = molecular target: T2, Mineralocorticoid receptor (Homo sapiens, UniProt P08235); assay type: functional, cell-based, Huh-7;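 further: antagonism at Gal4-fused mineralocorticoid receptor in human Huh7 cells, measured by luciferase reporter gene read-out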
T2 sequence (P08235 whole entry): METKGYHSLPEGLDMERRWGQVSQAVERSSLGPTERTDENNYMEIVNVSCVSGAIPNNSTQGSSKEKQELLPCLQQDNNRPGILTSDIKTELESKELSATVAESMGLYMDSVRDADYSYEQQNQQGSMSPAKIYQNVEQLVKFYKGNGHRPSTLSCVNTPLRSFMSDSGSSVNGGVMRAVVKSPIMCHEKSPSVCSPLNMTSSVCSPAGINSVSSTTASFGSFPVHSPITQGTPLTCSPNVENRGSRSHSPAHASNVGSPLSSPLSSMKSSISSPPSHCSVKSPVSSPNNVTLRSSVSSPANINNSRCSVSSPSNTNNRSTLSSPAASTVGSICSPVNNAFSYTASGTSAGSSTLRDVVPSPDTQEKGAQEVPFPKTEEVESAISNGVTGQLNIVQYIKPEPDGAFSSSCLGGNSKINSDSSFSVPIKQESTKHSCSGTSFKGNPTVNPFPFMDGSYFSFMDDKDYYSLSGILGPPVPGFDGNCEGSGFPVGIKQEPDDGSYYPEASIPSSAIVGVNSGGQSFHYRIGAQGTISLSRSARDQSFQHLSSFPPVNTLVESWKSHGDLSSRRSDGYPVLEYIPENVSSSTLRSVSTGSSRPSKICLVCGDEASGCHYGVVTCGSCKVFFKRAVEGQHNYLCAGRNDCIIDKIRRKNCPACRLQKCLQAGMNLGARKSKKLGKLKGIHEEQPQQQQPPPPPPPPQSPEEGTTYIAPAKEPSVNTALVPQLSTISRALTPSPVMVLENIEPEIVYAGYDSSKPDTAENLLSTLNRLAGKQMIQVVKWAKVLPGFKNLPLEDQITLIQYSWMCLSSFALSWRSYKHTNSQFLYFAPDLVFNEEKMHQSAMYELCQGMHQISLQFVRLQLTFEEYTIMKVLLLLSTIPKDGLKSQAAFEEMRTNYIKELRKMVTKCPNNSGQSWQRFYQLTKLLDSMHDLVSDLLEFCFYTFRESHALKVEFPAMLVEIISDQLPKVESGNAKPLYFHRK

Progesterone receptor = molecular target: T3, Progesterone receptor (Homo sapiens, UniProt P06401); assay: Antagonist activity at progesterone receptor; assay type: functional
T3 sequence (P06401 whole entry): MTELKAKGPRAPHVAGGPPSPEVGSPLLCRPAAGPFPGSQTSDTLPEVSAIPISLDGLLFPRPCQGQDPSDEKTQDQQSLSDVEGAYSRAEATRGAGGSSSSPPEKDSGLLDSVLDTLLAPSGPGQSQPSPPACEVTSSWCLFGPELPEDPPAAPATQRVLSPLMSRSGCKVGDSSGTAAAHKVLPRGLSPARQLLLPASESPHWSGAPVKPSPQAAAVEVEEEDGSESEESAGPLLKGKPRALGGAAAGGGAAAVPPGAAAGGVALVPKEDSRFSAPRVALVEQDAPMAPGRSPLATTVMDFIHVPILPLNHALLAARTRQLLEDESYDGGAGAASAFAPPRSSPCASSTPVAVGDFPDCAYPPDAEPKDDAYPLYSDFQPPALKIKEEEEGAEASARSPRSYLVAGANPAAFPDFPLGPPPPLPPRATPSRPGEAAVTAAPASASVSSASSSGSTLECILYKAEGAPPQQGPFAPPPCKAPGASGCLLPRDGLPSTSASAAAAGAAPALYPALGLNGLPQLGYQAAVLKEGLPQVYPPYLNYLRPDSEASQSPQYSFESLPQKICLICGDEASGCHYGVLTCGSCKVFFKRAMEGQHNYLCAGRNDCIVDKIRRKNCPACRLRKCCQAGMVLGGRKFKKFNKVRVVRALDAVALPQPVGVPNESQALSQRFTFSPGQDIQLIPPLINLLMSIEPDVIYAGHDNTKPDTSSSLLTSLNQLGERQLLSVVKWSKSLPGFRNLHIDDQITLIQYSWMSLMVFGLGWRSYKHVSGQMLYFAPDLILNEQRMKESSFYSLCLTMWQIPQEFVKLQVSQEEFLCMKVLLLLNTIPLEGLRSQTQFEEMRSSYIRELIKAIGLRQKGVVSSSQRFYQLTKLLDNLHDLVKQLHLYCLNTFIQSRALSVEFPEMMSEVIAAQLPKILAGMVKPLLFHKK

[4] = Volume of distribution at steady state in Sprague-Dawley rat at 2 mg/kg, iv; assay type: ADME, organism-based; design: dose 2 mg/kg, route intravenous; conditions: in vivo, read-out: Vdss
[5] = Clearance in Sprague-Dawley rat at 2 mg/kg, iv; assay type: ADME, organism-based; design: dose 2 mg/kg, route intravenous; conditions: in vivo
Glucocorticoid receptor = molecular target: T4, Glucocorticoid receptor (Homo sapiens, UniProt P04150)
T4 sequence (P04150 whole entry): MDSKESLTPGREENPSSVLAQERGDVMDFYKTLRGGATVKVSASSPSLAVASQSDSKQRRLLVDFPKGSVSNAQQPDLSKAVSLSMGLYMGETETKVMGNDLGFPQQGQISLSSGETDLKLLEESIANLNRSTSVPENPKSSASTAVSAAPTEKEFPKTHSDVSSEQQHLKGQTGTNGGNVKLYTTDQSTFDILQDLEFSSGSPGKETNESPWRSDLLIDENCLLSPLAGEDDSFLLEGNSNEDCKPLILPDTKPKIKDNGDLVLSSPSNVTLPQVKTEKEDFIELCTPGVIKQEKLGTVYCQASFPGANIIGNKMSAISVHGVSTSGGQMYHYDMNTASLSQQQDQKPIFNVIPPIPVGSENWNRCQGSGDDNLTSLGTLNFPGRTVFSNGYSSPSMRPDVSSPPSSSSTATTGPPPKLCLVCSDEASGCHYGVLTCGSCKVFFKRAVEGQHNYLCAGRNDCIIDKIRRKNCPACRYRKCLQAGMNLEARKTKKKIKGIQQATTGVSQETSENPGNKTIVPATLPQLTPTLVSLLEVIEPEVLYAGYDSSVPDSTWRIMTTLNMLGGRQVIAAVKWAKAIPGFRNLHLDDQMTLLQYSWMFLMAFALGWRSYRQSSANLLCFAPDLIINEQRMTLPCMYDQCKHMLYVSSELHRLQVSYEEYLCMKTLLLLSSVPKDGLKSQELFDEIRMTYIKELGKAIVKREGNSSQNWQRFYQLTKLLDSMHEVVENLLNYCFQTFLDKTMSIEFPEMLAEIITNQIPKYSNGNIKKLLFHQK

[6] = Volume of distribution at steady state in Sprague-Dawley rat at 1 mg/kg, iv; assay type: ADME, organism-based; design: dose 1 mg/kg, route intravenous; conditions: in vivo, read-out: Vdss
[7] = Clearance in Sprague-Dawley rat at 1 mg/kg, iv; assay type: ADME, organism-based; design: dose 1 mg/kg, route intravenous; conditions: in vivo
[8] = Half life in Sprague-Dawley rat at 1 mg/kg, iv; assay type: ADME, organism-based; design: dose 1 mg/kg, route intravenous; conditions: in vivo
Estrogen receptor = molecular target: T5, Estrogen receptor (Homo sapiens, UniProt P03372); assay: Antagonist activity at estrogen receptor; assay type: functional
T5 sequence (P03372 whole entry): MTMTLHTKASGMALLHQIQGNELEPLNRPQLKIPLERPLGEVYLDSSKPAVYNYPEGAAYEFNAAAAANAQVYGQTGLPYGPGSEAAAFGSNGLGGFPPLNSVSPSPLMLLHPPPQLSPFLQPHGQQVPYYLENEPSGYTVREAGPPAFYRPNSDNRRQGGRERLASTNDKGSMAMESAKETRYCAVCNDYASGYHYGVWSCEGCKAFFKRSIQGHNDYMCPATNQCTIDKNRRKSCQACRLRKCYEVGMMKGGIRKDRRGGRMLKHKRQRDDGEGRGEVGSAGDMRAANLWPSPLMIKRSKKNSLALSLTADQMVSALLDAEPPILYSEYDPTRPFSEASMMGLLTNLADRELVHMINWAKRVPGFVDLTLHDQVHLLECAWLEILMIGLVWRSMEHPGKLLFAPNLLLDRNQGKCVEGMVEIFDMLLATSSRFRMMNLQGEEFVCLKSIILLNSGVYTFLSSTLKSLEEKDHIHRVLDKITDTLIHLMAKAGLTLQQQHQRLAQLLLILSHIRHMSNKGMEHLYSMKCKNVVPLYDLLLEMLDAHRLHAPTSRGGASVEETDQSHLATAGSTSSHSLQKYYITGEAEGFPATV

[9] = Oral bioavailability in Sprague-Dawley rat at 1 mg/kg; assay type: ADME, organism-based; conditions: in vivo
Rattus norvegicus [10] = assay: Protection against high salt-induced kidney injury in Dahl salt sensitive hypertensive rat assessed as decrease in urinary albumin level at 40 to 100 mg/kg, po relative to eplerenone; assay type: functional; design: scale not given: the % may be the effect or the level left; conditions: dose mg/kg 40-100
Rattus norvegicus [11] = assay: Protection against high salt-induced kidney injury in Dahl salt sensitive hypertensive rat assessed as decrease in glomerulosclerosis at 10 mg/kg, po relative to eplerenone; assay type: functional, organism-based; design: dose 10 mg/kg
Rattus norvegicus [12] = assay: Protection against high salt-induced kidney injury in Dahl salt sensitive hypertensive rat assessed as decrease in urinary albumin level at 10 mg/kg, po relative to eplerenone; assay type: functional; design: scale not given: the % may be the effect or the level left
Rattus norvegicus [13] = assay: Antihypertensive activity in Dahl salt sensitive hypertensive rat assessed as reduction in systolic blood pressure at 40 to 100 mg/kg, po bid for 21 days (RVb = 10 to 50 mmHg); assay type: functional, Artery; conditions: dose mg/kg 40-100
Rattus norvegicus [14] = assay: Effect on renal function in rat assessed as reduction in serum potassium level at 10 mg/kg, po; assay type: functional, organism-based; design: dose 10 mg/kg

## N#Cc1ccc(N2N=C(c3ccc(C(=O)O)cc3)C[C@@H]2c2ccc(F)cc2)cc1Cl
Androgen receptor
  IC50: > 8920 nM
[1]
  bioavailability: 46%
[2]
  half-life: 2.6 h
[3]
  IC50: 31 nM
Progesterone receptor
  IC50: 2080 nM
[4]
  Vd: 1.5 L/kg
[5]
  clearance: 6.9 mL/min/kg
Glucocorticoid receptor
  IC50: > 10000 nM

## N#Cc1ccc(N2N=C(c3ccc(C(=O)O)cc3)C[C@@H]2C2CCCC2)cc1Cl
Androgen receptor
  IC50: > 10000 nM
[1]
  bioavailability: 100%
[2]
  half-life: 1.2 h
[3]
  IC50: 16 nM
Progesterone receptor
  IC50: > 4310 nM
[4]
  Vd: 3.6 L/kg
[5]
  clearance: 34 mL/min/kg
Glucocorticoid receptor
  IC50: > 10000 nM

## CCOc1cc(C2=NN(c3ccc(C#N)c(Cl)c3)[C@@H](C3CCCC3)C2)ccc1C(=O)O
[6]
  Vd: 2.3 L/kg
[1]
  bioavailability: 83%
[2]
  half-life: 1.3 h
[7]
  clearance: 9.2 mL/min/kg
[8]
  half-life: 2.5 h
Estrogen receptor
  IC50: > 4960 nM
[4]
  Vd: 0.6 L/kg
[5]
  clearance: 5.5 mL/min/kg
[9]
  bioavailability: 50%

## Cc1cc(N2N=C3c4ccc(C(=O)O)cc4CO[C@@H]3[C@@H]2C2CCCC2)ccc1C#N
Androgen receptor
  IC50: > 10000 nM
[1]
  bioavailability: 57%
[2]
  half-life: 1.6 h
[3]
  IC50: 26 nM
Progesterone receptor
  IC50: 1880 nM
[4]
  Vd: 0.6 L/kg
[5]
  clearance: 4.6 mL/min/kg
Glucocorticoid receptor
  IC50: > 10000 nM

## N#Cc1ccc(N2N=C3c4ccc(C(=O)O)cc4CC[C@@H]3[C@@H]2C2CCCC2)cc1 (racemic)
Androgen receptor
  IC50: > 10000 nM
[3]
  IC50: 89 nM
Progesterone receptor
  IC50: 3180 nM
Glucocorticoid receptor
  IC50: > 10000 nM

## N#Cc1ccc(N2N=C3c4ccc(C(=O)O)cc4CC[C@@H]3[C@@H]2C2CCCC2)cc1Cl [PF-03882845]
[1]
  bioavailability: 86%
Rattus norvegicus [10]
  Activity: 50%
[2]
  half-life: 1.7 h
Rattus norvegicus [11]
  Activity: Active
[4]
  Vd: 1.4 L/kg
[5]
  clearance: 9.8 mL/min/kg
Rattus norvegicus [12]
  Activity: 18%
Rattus norvegicus [13]
  Activity: <5 mmHg
Rattus norvegicus [14]
  Activity: Active
